In PMC9124820, “In vitro evaluation of fenfluramine and norfenfluramine as victims of drug interactions” (Pharmacology Research & Perspectives, 2022):

Columns and labels:
Assay type in all cases: in vitro ADME
[1] = Metabolic stability and metabolite identity, human liver S9 fractions
Description: (§1) LC‐MS/MS analyses to assess metabolic stability and identify the transporter substrate were performed using an API 4000 QTRAP mass spectrometer (SCIEX, Framingham, MA) with electrospray ionization in positive mode. Chromatography was performed using an Atlantis dC18 analytical column (100 × 2.1 mm, 5 µm; Waters Corporation, Milford, MA). Mobile phases were 0.2% v/v formic acid in water and 0.2% v/v formic acid in acetonitrile. For metabolic stability experiments, FFA and metabolites were eluted at a flow rate of 0.6 mL/min, with a linear gradient of 20%−80% acetonitrile from 0.30−2.0 min. For transporter substrate experiments, the gradient was slightly modified to achieve suitable chromatography. The mass transitions monitored were 232.0 > 159.0 for FFA and 348.0 > 330.0 for 1ʹ‐OH‐midazolam‐d4 internal standard.
For metabolic characterization experiments, LC‐MS/MS analyses were performed using an Acquity Ultra Performance Liquid Chromatography system with an in‐line photodiode array detector and ethylene bridged hybrid C18 columns (2.1 × 100 mm, 1.7 µm; Waters Corporation) coupled to a Synapt G2 HDMS QTOF (Waters Corporation). Mobile phases were 0.1% v/v formic acid in water and 0.1% v/v formic acid in methanol. FFA and metabolites were eluted at a flow rate of 0.5 mL/min with a linear gradient of 2.0%−35% methanol from 1.0−10.0 min. The mass spectrometer was operated in positive mode with electrospray ionization. Data were acquired over the range 50−1200 m/z (mass‐to‐charge ratio) using capillary voltage, 3.5 kV; extraction cone voltage, 4.0 V; source temperature, 120°C; and desolvation temperature, 350°C. A continuous lock mass reference compound, fexofenadine, was sampled at 10‐s intervals for centroid data mass correction. Data were processed with MetaboLynx XS, a component of MassLynx (v. 4.1) software (Waters Corporation).
FFA (1 or 10 µM) was incubated with liver and intestinal S9 fractions (2 mg protein/mL) at 37 ± 1°C in 0.2‐mL incubation mixtures containing potassium phosphate buffer (50 mM, pH 7.4), magnesium chloride (MgCl2) (3 mM), and EDTA (1 mM, pH 7.4), in the presence or absence of a three‐component cofactor mixture (NADPH‐generating system, uridine diphosphate glucuronic acid (UDPGA) [8 mM], and 3’‐phosphoadenosine 5’‐phosphosulfate [0.5 mM]). The NADPH‐generating system consisted of NADP (1 mM, pH 7.4), glucose‐6‐phosphate (5 mM, pH 7.4), and glucose‐6‐phosphate dehydrogenase (1 U/mL). Reactions were initiated by adding the cofactor mix and were stopped at 0, 30, 60, or 120 min by adding an equal volume of acetonitrile. Cofactor controls were incubations performed in parallel in the absence of cofactor for 120 min. Additional incubations were performed with midazolam (10 μM) as a positive control to establish the metabolic competence of test systems. Samples were centrifuged at 920 × g for 10 min at 10°C. Supernatant fractions were analyzed by LC‐MS/MS.
(§2) To characterize substrate loss and metabolic stability, duplicate samples were analyzed by LC‐MS/MS to determine the change in substrate concentration over the incubation period. The rate constant of elimination (kel, min^−1) was determined from the time course of substrate loss based on single exponential decay (A(t)=A0(‐kelt)) . Half‐life in vitro was determined by the following equation: t1/2 = 0.693/kel. The in vitro intrinsic clearance (CLint) was calculated from the rate constant of elimination as follows: CLintμL/min/mgprotein=kelmin^‐1×incubationvolume(μL)/mgproteinperincubation.
(§3) Percent loss of substrate was determined by normalizing the mean analyte peak‐area ratio at each time point to the average of four replicates at the 0‐min time point (100%).

[2] = Metabolic stability and metabolite identity, rat intestinal S9 fractions; details: intestinal S9 fractions, pH 7.4; 1 µM FFA, rat intestine S9 fractions; outside assay detection limits
Description: as §1, with “standard. […]” for “standard.”
FFA (1 or 10 µM) was incubated with liver and intestinal S9 fractions (2 mg protein/mL) at 37 ± 1°C in 0.2‐mL incubation mixtures containing potassium phosphate buffer (50 mM, pH 7.4), magnesium chloride (MgCl2) (3 mM), and EDTA (1 mM, pH 7.4), in the presence or absence of a three‐component cofactor mixture (NADPH‐generating system, uridine diphosphate glucuronic acid (UDPGA) [8 mM], and 3’‐phosphoadenosine 5’‐phosphosulfate [0.5 mM]). […] Supernatant fractions were analyzed by LC‐MS/MS.
as §2, §3

[3] = biological target: T1, rCYP2D6 (Homo sapiens, UniProt P10635); assay: Reaction phenotyping with rCYP2D6; details: rCYP2D6, 60 min
T1 construct: purchased Cypex, Ltd; host or cells: Escherichia coli
T1 sequence (P10635 whole entry): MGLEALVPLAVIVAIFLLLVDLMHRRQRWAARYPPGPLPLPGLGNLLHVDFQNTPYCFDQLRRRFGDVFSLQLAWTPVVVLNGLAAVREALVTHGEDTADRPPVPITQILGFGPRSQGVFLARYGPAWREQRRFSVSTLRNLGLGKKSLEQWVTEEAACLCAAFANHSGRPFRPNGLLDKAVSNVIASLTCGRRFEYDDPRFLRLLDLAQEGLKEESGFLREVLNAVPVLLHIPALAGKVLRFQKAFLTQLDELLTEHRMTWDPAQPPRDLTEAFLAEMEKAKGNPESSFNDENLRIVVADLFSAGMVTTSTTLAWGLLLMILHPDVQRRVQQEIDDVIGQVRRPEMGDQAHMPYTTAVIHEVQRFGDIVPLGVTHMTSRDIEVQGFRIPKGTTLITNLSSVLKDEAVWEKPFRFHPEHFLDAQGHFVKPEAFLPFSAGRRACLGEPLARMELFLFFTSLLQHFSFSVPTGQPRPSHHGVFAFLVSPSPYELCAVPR
Description: For FFA and nFFA reaction phenotyping experiments, LC‐MS/MS experiments were performed using an API 4000 QTRAP or QTRAP 5500 mass spectrometer (SCIEX) with positive electrospray ionization. Chromatography was performed using an Atlantis dC18 analytical column (100 × 2.1 mm, 5 µm; Waters Corporation). Mobile phases were 0.2% v/v formic acid in water and 0.2% v/v formic acid in methanol. FFA and nFFA were eluted at a flow rate of 0.5 mL/min with a linear gradient of 40%−95% methanol from 0.20−2.1 min. The mass transitions monitored were 232.0>109.0 for FFA, 204.0>159.0 for nFFA, 348.0>330.0 for 1’‐hydroxymidazolam‐d4 internal standard (FFA reaction phenotyping), and 262.0>244.0 for hydroxybupropion‐d6 internal standard (nFFA reaction phenotyping). Analyst Instrument Control and Data Processing software (v. 1.6.1) was used for collecting and integrating data (SCIEX). Calibration curves ranging from 1.25 µM−0.01 µM were used to quantify nFFA. Relative quantitation was used to approximate the amount of FFA test material used.
Methods used to evaluate the role of CYP450s in the metabolism of FFA have been described.[22], [23], [24] […] Supernatant fractions were analyzed by LC‐MS/MS.

[4] = pH 7.4, 1 µM FFA, human liver S9 fractions 2 mg protein/mL, outside assay detection limits

SMILES: CCNC(C)Cc1cccc(C(F)(F)F)c1 (racemic) [FFA, (RS)‐ethyl (α‐methyl‐3‐trifluoromethylphenethyl)amine]
- percent of the drug remaining ([1]; human liver S9, 1 μM FFA with cofactors, 30 min): 1.9%
- percent of the drug remaining ([1]; human liver S9, 1 μM FFA with cofactors, 60 min): 11.1%
- percent of the drug remaining ([1]; human liver S9, 1 μM FFA with cofactors, 120 min): 20.9%
- percent of the drug remaining ([1]; human liver S9, 1 μM FFA, absence of the cofactors): 21.6%
- percent of the drug remaining ([1]; human liver S9, 10 μM FFA, absence of the cofactors): 22.9%
- half-life at 1 µM [1, 4]: > 2 h
- microsomal CLint at 1 µM [1, 4]: < 2.9 µL/min/mg
- half-life at 1 µM [2]: > 2 h
- microsomal CLint at 1 µM [2]: < 2.9 µL/min/mg
- Disappearance of FFA ([3]; 1 μM FFA): 97%
- FFA loss ([3]; 10 μM FFA): 59%
